According to ChEMBL document CHEMBL3407491, “Synthesis, characterization and in vitro photodynamic antimicrobial activity of basic amino acid-porphyrin conjugates” (Eur J Med Chem, 2015):
In brackets after ≈: the same amount, converted by molar mass. Activity calls are given as the source filed them. The rule behind the calls is not given here.

How the values were obtained:
Staphylococcus aureus [1] = test: Antibacterial activity against methicillin-resistant Staphylococcus aureus incubated in dark for 30 mins measured after 24 hrs; type: functional
[2] = Toxicity against human […] cells irradiated with 6 J/cm2 radiation assessed as cell viability at 7.81 uM by MTT assay; type: cell-based; settings: read-out: Activity
Pseudomonas aeruginosa [3] = test: Antibacterial activity against Pseudomonas aeruginosa ATCC 27853 incubated in dark for 30 mins measured after 24 hrs; type: functional
[4] = Stability in mouse serum assessed as compound remaining after 24 hrs by RP-HPLC method; type: ADME; settings: read-out: Stability
Escherichia coli [5] = test: Drug uptake in Escherichia coli ATCC 25922 at 12.5 uM by confocal laser scanning microscopy; type: ADME, organism-based; settings: in vivo
[6] = Octanol water partition coefficient, log P of the compound by reverse-phase thin-layer chromatography; type: physicochemical
Staphylococcus aureus [7] = test: Drug uptake in methicillin-resistant Staphylococcus aureus at 12.5 uM by confocal laser scanning microscopy; type: ADME, organism-based; settings: in vivo
Escherichia coli [8] = test: Antibacterial activity against Escherichia coli ATCC 25922 assessed as log reduction in bacterial count at 7.81 uM incubated in dark for 30 mins followed by exposure to light fluences at 650 nm and 6 J/cm2 and then incubated overnight measured after 24 hrs; type: functional, organism-based
Escherichia coli [9] = test: Antibacterial activity against Escherichia coli ATCC 25922 incubated in dark for 30 mins and grown for 24 hrs followed by further incubation on LB agar plates for another 24 hrs; type: functional
Escherichia coli [10] = test: Antibacterial activity against Escherichia coli ATCC 25922 at 0.49 uM to 7.8 uM incubated in dark for 30 mins followed by exposure to light fluences at 650 nm and 6 J/cm2 and then incubated overnight measured after 24 hrs; type: functional, organism-based
Escherichia coli [11] = test: Antibacterial activity against Escherichia coli ATCC 25922 incubated in dark for 30 mins measured after 24 hrs; type: functional
Escherichia coli [12] = test: Antibacterial activity against Escherichia coli ATCC 25922 at 3.91 uM to 62.50 uM incubated in dark for 30 mins followed by exposure to light fluences at 650 nm and 6 J/cm2 and then incubated overnight measured after 24 hrs; type: functional, organism-based
[13] = Toxicity against human […] cells assessed as reduction in cell viability by MTT assay; type: cell-based
Escherichia coli [14] = test: Antibacterial activity against Escherichia coli ATCC 25922 assessed as log reduction in bacterial count at 2 uM incubated in dark for 30 mins followed by exposure to light fluences at 650 nm and 6 J/cm2 and then incubated overnight measured after 24 hrs; type: functional
Escherichia coli [15] = test: Antibacterial activity against Escherichia coli ATCC 25922 incubated in dark for 30 mins followed by exposure to light fluences at 650 nm and 6 J/cm2 and then incubated overnight measured after 24 hrs; type: functional; settings: ATCC 25922, light or radiation study
Pseudomonas aeruginosa [16] = test: Antibacterial activity against Pseudomonas aeruginosa ATCC 27853 incubated in dark for 30 mins followed by exposure to light fluences at 650 nm and 6 J/cm2 and then incubated overnight measured after 24 hrs; type: functional; settings: ATCC 27853, light or radiation study
Staphylococcus aureus [17] = test: Bactericidal activity against methicillin-resistant Staphylococcus aureus incubated in dark for 30 mins followed by exposure to light fluences at 650 nm and 6 J/cm2 and then incubated overnight followed by further incubation on LB agar plates for another 24 hrs; type: functional; settings: light or radiation study
Pseudomonas aeruginosa [18] = test: Antibacterial activity against Pseudomonas aeruginosa ATCC 27853 incubated in dark for 30 mins and grown for 24 hrs followed by further incubation on LB agar plates for another 24 hrs; type: functional
Staphylococcus aureus [19] = test: Antibacterial activity against methicillin-resistant Staphylococcus aureus assessed as log reduction in bacterial count at 2 uM incubated in dark for 30 mins followed by exposure to light fluences at 650 nm and 6 J/cm2 and then incubated overnight measured after 24 hrs; type: functional
Staphylococcus aureus [20] = test: Antibacterial activity against methicillin-resistant Staphylococcus aureus at 0.49 uM to 7.8 uM incubated in dark for 30 mins followed by exposure to light fluences at 650 nm and 6 J/cm2 and then incubated overnight measured after 24 hrs; type: functional, organism-based
Staphylococcus aureus [21] = test: Antibacterial activity against methicillin-resistant Staphylococcus aureus incubated in dark for 30 mins followed by exposure to light fluences at 650 nm and 6 J/cm2 and then incubated overnight measured after 24 hrs; type: functional; settings: light or radiation study
Pseudomonas aeruginosa [22] = test: Antibacterial activity against Pseudomonas aeruginosa ATCC 27853 at 3.91 uM to 62.50 uM incubated in dark for 30 mins followed by exposure to light fluences at 650 nm and 6 J/cm2 and then incubated overnight measured after 24 hrs; type: functional, organism-based
Pseudomonas aeruginosa [23] = test: Antibacterial activity against Pseudomonas aeruginosa ATCC 27853 assessed as log reduction in bacterial count at 3.5 uM incubated in dark for 30 mins followed by exposure to light fluences at 650 nm and 6 J/cm2 and then incubated overnight measured after 24 hrs; type: functional
Pseudomonas aeruginosa [24] = test: Bactericidal activity against Pseudomonas aeruginosa ATCC 27853 incubated in dark for 30 mins followed by exposure to light fluences at 650 nm and 6 J/cm2 and then incubated overnight followed by further incubation on LB agar plates for another 24 hrs; type: functional; settings: ATCC 27853, light or radiation study
[25] = Photostability at 2 x 10^-5 mol/L exposed to 4.2 mW/cm2 light energy density assessed as change in absorption spectra after 30 mins post irradiation; type: physicochemical; settings: 0.5 h, 20 µM
Staphylococcus aureus [26] = test: Antibacterial activity against methicillin-resistant Staphylococcus aureus incubated in dark for 30 mins and grown for 24 hrs followed by further incubation on LB agar plates for another 24 hrs; type: functional
Pseudomonas aeruginosa [27] = test: Antibacterial activity against Pseudomonas aeruginosa ATCC 27853 assessed as log reduction in bacterial count at 7.81 uM incubated in dark for 30 mins followed by exposure to light fluences at 650 nm and 6 J/cm2 and then incubated overnight measured after 24 hrs; type: functional, organism-based
[28] = Toxicity against human […] cells assessed as cell viability at 3.91 to 62.5 uM under dark conditions by MTT assay; type: cell-based; settings: read-out: Activity
Pseudomonas aeruginosa [29] = test: Antibacterial activity against Pseudomonas aeruginosa ATCC 27853 at 0.49 uM to 7.8 uM incubated in dark for 30 mins followed by exposure to light fluences at 650 nm and 6 J/cm2 and then incubated overnight measured after 24 hrs; type: functional, organism-based
Pseudomonas aeruginosa [30] = test: Drug uptake in Pseudomonas aeruginosa ATCC 27853 at 12.5 uM by confocal laser scanning microscopy; type: ADME, organism-based; settings: in vivo
Escherichia coli [31] = test: Bactericidal activity against Escherichia coli ATCC 25922 incubated in dark for 30 mins followed by exposure to light fluences at 650 nm and 6 J/cm2 and then incubated overnight followed by further incubation on LB agar plates for another 24 hrs; type: functional; settings: ATCC 25922, light or radiation study
[32] = Singlet oxygen generation of the compound exposed to 4.2 mW/cm2 light energy density assessed as singlet oxygen quantum yield measured at 410 nm in 10 seconds intervals of irradiation at 0.2 uM by DPBF scavenger based assay

NCCCC[C@H](N)C(=O)Nc1ccc(-c2c3nc(c(-c4ccc(NC(=O)[C@@H](N)CCCCN)cc4)c4ccc([nH]4)c(-c4ccc(NC(=O)[C@@H](N)CCCCN)cc4)c4nc(c(-c5ccc(NC(=O)[C@@H](N)CCCCN)cc5)c5ccc2[nH]5)C=C4)C=C3)cc1
MIC (Staphylococcus aureus [1]): 62.5 µM (≈ 74.2 µg/mL)
viability at 7.81 µM [2]: > 85%
MIC (Pseudomonas aeruginosa [3]): 250 µM (≈ 297 µg/mL)
remaining at 24 h [4]: 85%
Drug uptake (Escherichia coli [5]): Active
logP [6]: 0.9
Drug uptake (Staphylococcus aureus [7]): Active
Activity (Escherichia coli [8]): Active
MBC (Escherichia coli [9]): 125 µM (≈ 148 µg/mL)
Activity (Escherichia coli [10]): Dose-dependent effect
MIC (Escherichia coli [11]): 62.5 µM (≈ 74.2 µg/mL)
Activity (Escherichia coli [12]): Dose-dependent effect
Activity [13]: Dose-dependent effect
FC (Escherichia coli [14]): 3
MIC (Escherichia coli [15]): 1.95 µM (≈ 2.32 µg/mL)
MIC (Pseudomonas aeruginosa [16]): 7.81 µM (≈ 9.27 µg/mL)
MBC (Staphylococcus aureus [17]): 7.81 µM (≈ 9.27 µg/mL)
MBC (Pseudomonas aeruginosa [18]): > 500 µM
FC (Staphylococcus aureus [19]): 3
Activity (Staphylococcus aureus [20]): Dose-dependent effect
MIC (Staphylococcus aureus [21]): 3.91 µM (≈ 4.64 µg/mL)
Activity (Pseudomonas aeruginosa [22]): Dose-dependent effect
FC (Pseudomonas aeruginosa [23]): 3
MBC (Pseudomonas aeruginosa [24]): 15.6 µM (≈ 18.5 µg/mL)
Activity [25]: < 20%
MBC (Staphylococcus aureus [26]): 125 µM (≈ 148 µg/mL)
Activity (Pseudomonas aeruginosa [27]): Active
viability at 62.5 µM [28]: > 90%
Activity (Pseudomonas aeruginosa [29]): Dose-dependent effect
Drug uptake (Pseudomonas aeruginosa [30]): Active
MBC (Escherichia coli [31]): 3.91 µM (≈ 4.64 µg/mL)
Activity [32]: 0.95
